Test results taken from patent US6544727B1, “Methods and devices for the removal of psoralens from blood products” (Cerus Corporation, priority 1995, dated 2003).
“Also recorded” adds a separate entry of the source.

Columns and labels:
[1] = test system: R17 bacteriophage; test: R17 bacteriophage inactivation assay, varying compound concentration; assay type: cell-based; conditions: for R17 inactivation efficiency compared with AMT or 8-MOP (in words): varying concentration, Tables 6-9, FIGS. 6-10
Outline: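 R17 phage (10^9/mL in DMEM with 15% FBS) mixed with compound at 4–320 μM and irradiated 1–10 min. Surviving phage titred by serial dilution and plaque assay on Hfr 3000 bacteria after overnight incubation at 37 °C; controls were untreated phage, UV without compound, and compound without irradiation.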

[2] = test system: Salmonella typhimurium tester strains; test: Ames Salmonella dark mutagenicity test, overall assessment; assay type: cell-based; conditions: two-fold or greater increase in revertants above background and dose dependence
Protocol: A brief description for each procedure is given here. […] TA97a, TA98, TA1537 and TA1538 are frameshift tester strains. TA100 and TA102 are base-substitution tester strains.
This served as the background controls.
For all experiments, the pre-incubation procedure was used.

[3] = test system: Salmonella tester strain TA98; test: Ames test, strain TA98
Protocol: In this example the compounds of the present invention are tested for their dark mutagenicity using an Ames assay. The procedures used for the Salmonella mutagenicity test as described in detail by Maron and Ames were followed exactly. Maron, D. M. and B. N. Ames, Mutation Research 113: 173 ( 1983). A brief description for each procedure is given here. The tester strains TA97a, TA98, TA100, TA102, TA1537 and TA1538 were obtained from Dr. Ames. TA97a, TA98, TA1537 and TA1538 are frameshift tester strains. TA100 and TA102 are base-substitution tester strains. Upon receipt each strain was cultured under a variety of conditions to confirm the genotypes specific to the strains.
The first tests done with the strains were to determine the range of spontaneous reversion for each of the strains. With each mutagenicity experiment the spontaneous reversion of the tester strains to histidine independence was measured and expressed as the number of spontaneous revertants per plate. This served as the background controls.
For all experiments, the pre-incubation procedure was used. In this procedure one vial of each tester strain was thawed and 20 μL of this culture was added to 6 mL of Oxoid Nutrient Broth #2. This solution was allowed to shake for 10 hours at 37° C. In the pre-incubation procedure, 0.1 mL of this overnight culture was added to each of the required number of sterile test tubes. To half of the tubes 0.5 mL of a 10% S-9 solution containing Aroclor 1254 induced rat liver extract (Molecular Toxicology Inc., Annapolis, Md.), and MgCl2, KCl, glucose-6-phosphate, NADP, and sodium phosphate buffer (Sigma, St. Louis, Mo.) were added. To the other half of the tubes 0.5 mL of 0.2M sodium phospate buffer, pH 7.4, was used in place of the S-9 mixture (the—S9samples). […] The 0.7 mL mixture was vortexed and then pre-incubated while shaking for 20 minutes at 37° C. After shaking, 2 mL of molten top agar supplemented with histidine and biotin were added to the 0.7 mL mixture and immediately poured onto a minimal glucose agar plate (volume of base agar was 20 mL). The top agar was allowed 30 minutes to solidify and then the plates were inverted and incubated for 44 hours at 37° C. After incubation the number of revertant colonies on each plate were counted. […] (“n” represents the number of replicates performed for each data point.)

[4] = 8 μM, starting titer approx. 7.2 logs, 1 minute irradiation (Table 7)
[5] = 16 μM, starting titer approx. 7.1 logs, 1 minute irradiation (Table 9)
[6] = 16 μM, starting titer approx. 7.1 logs, 1 minute irradiation = 1.2 J/cm^2 (Table 8)
[7] = 16 μM, starting titer approx. 7.2 logs, 1 minute irradiation (Table 7)
[8] = 32 μM, starting titer approx. 7.1 logs, 1 minute irradiation = 1.2 J/cm^2 (Table 8)
[9] = 32 μM, starting titer approx. 7.2 logs, 1 minute irradiation (Table 7)

Row | SMILES | R17 Log Kill [1, 4] | R17 Log Kill [1, 5] | R17 Log Kill [1, 6] | R17 Log Kill [1, 7] | R17 Log Kill [1, 8] | R17 Log Kill [1, 9] | mutagenic response in the Ames assay (in words) [2] | revertant colonies per plate ([3]; TA98 + S9, 10 μg/plate) | revertant colonies per plate ([3]; TA98 + S9, 50 μg/plate) | revertant colonies per plate ([3]; TA98 + S9, 100 μg/plate) | revertant colonies per plate ([3]; TA98 + S9, 250 μg/plate) | revertant colonies per plate ([3]; TA98 − S9, 10 μg/plate) | revertant colonies per plate ([3]; TA98 − S9, 50 μg/plate) | revertant colonies per plate ([3]; TA98 − S9, 100 μg/plate) | revertant colonies per plate ([3]; TA98 − S9, 250 μg/plate) | R17 inactivation efficiency compared with AMT or 8-MOP (in words) [1] | also measured
1 | Cc1oc2c(C)c3oc(=O)cc(C)c3cc2c1CN [AMT, 4′-Aminomethyl-4,5′,8-trimethylpsoralen, reference compound] | 2.7 log | >6 log | 4.5 log | 4.6 log | 4.8 log | >6.2 log | showed frameshift mutagenicity at between 5 and 10 μg/plate in TA97a and TA98, at 5 μg/plate in TA1537 and at 1 μg/plate in TA1538; also recorded: no significant base-substitution mutations | 403 | 620 | 745 | 933 | 20 | 69 | 114 | 112 |  | R17 Log Kill ([1]; 32 μM, starting titer approx. 7.1 logs, 1 minute irradiation (Table 9)): >6 log; R17 log kill (32 μM) ([1]; 32 μM, starting titer approx. 7.5 logs, 1 minute irradiation): >6.7 log; revertant colonies per plate ([3]; TA98 + S9, 0.1 μg/plate): 1; revertant colonies per plate ([3]; TA98 + S9, 0.5 μg/plate): 3; revertant colonies per plate ([3]; TA98 + S9, 1 μg/plate): 21; revertant colonies per plate ([3]; TA98 + S9, 5 μg/plate): 232; revertant colonies per plate ([3]; TA98 − S9, 0.1 μg/plate): 3; revertant colonies per plate ([3]; TA98 − S9, 0.5 μg/plate): 5; revertant colonies per plate ([3]; TA98 − S9, 1 μg/plate): 5; revertant colonies per plate ([3]; TA98 − S9, 5 μg/plate): 16
2 | Cc1cc(=O)oc2c(C)c3oc(COCCN)c(C)c3cc12 [Compound 18, 5′-(4-amino-2-oxa)butyl-4,4′,8-trimethylpsoralen] |  |  |  |  |  |  | only a weak response at high concentrations in the presence of S9 | 8 | 6 | 26 |  | 21 | 303 | 390 |  |  | revertant colonies per plate ([3]; TA98 + S9, 200 μg/plate): 42; revertant colonies per plate ([3]; TA98 − S9, 200 μg/plate): 225
3 | Cc1oc2c(C)c3oc(=O)cc(C)c3cc2c1COCCN [Compound 2, 4′-(4-amino-2-oxa)butyl-4,5′,8-trimethylpsoralen] | 3.8 log |  |  | >6.2 log |  | >6.2 log | weak frameshift mutagenicity in the presence of S9 in TA98 and TA1537 | 24 | 35 | 53 | 69 | 28 | 52 | 39 | 29 | significantly higher inactivation efficiency than does AMT | revertant colonies per plate ([3]; TA98 + S9, 500 μg/plate): 63; revertant colonies per plate ([3]; TA98 − S9, 500 μg/plate): 6
4 | Cc1oc2c(C)c3oc(=O)cc(C)c3cc2c1CNCCCCN [Compound 6, 4′-(6-amino-2-aza)hexyl-4,5′,8-trimethylpsoralen] |  | >6 log | >6.1 log |  | >6.1 log |  | no base substitution mutagenicity; also recorded: frameshift response in TA98 in the presence of S9 at concentrations of 250 μg/plate and above |  |  |  |  |  |  |  |  | significantly higher inactivation efficiency than does AMT | R17 Log Kill ([1]; 8 μM, starting titer approx. 7.1 logs, 1 minute irradiation (Table 9)): >6 log; R17 Log Kill ([1]; 64 μM, starting titer approx. 7.1 logs, 1 minute irradiation = 1.2 J/cm^2 (Table 8)): >6.1 log
